Assays:
Type in all cases: biochemical
PI3Kβ = PI3Kβ (Homo sapiens, UniProt P42338); test: PI3Kβ inhibition
PI3Kγ = PI3Kγ (Homo sapiens, UniProt P48736); test: PI3Kγ inhibition
PI3Kδ = PI3Kδ (Homo sapiens, UniProt O00329); test: PI3Kδ inhibition
PI3Kα = PI3Kα (Homo sapiens, UniProt P42336); test: PI3Kα inhibition
class I PI3K isoforms = test: Inhibition of PI3K isoforms; conditions: for inhibition of PI3K: same compounds synthesized by compound 5 as key intermediate (no contaminant)
PDE2 = PDE2 (Homo sapiens, UniProt O00408); test: PDE2 inhibition
PDE4 = PDE4 inhibition; conditions: for IC50: read-out: PDE4 inhibition IC50

PI3Kγ, sequence (P48736 whole entry, species assumed): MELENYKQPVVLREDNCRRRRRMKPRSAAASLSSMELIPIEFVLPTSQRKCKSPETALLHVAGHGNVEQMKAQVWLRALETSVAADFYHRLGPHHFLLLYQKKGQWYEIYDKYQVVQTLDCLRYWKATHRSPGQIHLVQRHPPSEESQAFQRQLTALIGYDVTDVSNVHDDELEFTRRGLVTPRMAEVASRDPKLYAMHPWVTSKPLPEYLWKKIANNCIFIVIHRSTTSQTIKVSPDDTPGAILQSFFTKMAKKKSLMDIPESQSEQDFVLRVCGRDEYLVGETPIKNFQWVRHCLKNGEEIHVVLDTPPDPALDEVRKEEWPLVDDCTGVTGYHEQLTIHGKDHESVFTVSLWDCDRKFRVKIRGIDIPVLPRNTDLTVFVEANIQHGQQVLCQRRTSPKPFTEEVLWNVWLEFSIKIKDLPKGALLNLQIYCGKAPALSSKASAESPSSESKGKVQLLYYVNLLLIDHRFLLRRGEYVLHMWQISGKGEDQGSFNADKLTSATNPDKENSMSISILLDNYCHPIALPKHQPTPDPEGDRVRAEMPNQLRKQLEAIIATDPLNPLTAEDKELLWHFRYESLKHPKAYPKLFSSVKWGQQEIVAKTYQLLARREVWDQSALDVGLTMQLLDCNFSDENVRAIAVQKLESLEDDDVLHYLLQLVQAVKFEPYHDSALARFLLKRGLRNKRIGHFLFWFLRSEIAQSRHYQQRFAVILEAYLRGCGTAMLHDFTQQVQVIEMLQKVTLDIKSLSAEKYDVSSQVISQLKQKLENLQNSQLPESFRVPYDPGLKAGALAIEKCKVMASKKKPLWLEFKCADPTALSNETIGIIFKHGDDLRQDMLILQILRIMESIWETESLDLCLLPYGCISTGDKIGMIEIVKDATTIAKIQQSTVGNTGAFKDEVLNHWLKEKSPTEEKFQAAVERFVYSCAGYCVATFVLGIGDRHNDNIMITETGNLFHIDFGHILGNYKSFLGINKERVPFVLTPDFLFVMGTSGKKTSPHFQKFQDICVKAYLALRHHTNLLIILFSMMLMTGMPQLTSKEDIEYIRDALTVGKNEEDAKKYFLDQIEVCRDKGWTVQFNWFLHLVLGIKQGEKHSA
PI3Kδ, sequence (O00329 whole entry, species assumed): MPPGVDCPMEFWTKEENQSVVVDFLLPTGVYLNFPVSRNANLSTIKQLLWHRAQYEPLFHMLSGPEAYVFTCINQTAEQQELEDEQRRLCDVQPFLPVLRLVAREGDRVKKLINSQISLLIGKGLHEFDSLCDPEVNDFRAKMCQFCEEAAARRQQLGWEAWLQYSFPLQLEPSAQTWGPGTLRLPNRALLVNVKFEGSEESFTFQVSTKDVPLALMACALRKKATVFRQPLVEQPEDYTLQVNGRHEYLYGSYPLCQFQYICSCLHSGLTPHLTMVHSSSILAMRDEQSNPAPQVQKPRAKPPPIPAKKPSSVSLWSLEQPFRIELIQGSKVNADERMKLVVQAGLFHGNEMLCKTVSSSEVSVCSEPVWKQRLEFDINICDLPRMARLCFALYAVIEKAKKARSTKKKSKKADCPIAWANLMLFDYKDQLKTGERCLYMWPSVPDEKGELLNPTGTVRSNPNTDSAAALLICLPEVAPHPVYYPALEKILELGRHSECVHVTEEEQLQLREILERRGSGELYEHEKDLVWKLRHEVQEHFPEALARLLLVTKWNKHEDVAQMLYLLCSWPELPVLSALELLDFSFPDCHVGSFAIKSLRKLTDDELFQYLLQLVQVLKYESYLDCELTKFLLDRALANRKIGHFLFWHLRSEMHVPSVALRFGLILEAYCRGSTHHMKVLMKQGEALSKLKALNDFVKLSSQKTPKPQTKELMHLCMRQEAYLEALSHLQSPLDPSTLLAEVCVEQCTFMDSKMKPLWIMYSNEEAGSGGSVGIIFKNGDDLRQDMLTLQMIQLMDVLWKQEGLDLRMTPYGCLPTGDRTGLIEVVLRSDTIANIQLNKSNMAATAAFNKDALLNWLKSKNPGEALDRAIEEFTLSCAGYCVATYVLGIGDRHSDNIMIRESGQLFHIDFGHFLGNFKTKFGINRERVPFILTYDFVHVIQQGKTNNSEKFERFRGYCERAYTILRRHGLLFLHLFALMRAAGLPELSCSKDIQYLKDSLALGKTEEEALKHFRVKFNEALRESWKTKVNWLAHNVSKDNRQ
PI3Kδ, sequence (P27986 whole entry partner, species assumed): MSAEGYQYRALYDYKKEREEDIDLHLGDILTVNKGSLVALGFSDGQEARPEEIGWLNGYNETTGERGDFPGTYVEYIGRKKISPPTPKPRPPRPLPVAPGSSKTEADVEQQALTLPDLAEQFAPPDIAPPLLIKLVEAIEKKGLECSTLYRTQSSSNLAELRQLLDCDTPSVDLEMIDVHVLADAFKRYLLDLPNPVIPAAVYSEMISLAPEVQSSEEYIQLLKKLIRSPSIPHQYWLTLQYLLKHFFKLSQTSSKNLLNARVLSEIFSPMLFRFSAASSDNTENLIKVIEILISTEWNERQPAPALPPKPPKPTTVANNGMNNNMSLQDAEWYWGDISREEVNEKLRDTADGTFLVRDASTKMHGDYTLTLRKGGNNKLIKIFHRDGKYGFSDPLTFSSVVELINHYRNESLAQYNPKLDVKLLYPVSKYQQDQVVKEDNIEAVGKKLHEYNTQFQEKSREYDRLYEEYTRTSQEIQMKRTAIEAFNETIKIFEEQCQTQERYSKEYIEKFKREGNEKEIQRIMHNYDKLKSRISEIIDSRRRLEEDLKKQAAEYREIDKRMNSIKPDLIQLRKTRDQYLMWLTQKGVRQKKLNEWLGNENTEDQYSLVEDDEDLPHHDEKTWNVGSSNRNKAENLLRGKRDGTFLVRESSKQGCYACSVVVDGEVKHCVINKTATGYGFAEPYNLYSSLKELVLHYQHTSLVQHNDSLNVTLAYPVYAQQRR
PI3Kβ, sequence (P42338 whole entry, species assumed): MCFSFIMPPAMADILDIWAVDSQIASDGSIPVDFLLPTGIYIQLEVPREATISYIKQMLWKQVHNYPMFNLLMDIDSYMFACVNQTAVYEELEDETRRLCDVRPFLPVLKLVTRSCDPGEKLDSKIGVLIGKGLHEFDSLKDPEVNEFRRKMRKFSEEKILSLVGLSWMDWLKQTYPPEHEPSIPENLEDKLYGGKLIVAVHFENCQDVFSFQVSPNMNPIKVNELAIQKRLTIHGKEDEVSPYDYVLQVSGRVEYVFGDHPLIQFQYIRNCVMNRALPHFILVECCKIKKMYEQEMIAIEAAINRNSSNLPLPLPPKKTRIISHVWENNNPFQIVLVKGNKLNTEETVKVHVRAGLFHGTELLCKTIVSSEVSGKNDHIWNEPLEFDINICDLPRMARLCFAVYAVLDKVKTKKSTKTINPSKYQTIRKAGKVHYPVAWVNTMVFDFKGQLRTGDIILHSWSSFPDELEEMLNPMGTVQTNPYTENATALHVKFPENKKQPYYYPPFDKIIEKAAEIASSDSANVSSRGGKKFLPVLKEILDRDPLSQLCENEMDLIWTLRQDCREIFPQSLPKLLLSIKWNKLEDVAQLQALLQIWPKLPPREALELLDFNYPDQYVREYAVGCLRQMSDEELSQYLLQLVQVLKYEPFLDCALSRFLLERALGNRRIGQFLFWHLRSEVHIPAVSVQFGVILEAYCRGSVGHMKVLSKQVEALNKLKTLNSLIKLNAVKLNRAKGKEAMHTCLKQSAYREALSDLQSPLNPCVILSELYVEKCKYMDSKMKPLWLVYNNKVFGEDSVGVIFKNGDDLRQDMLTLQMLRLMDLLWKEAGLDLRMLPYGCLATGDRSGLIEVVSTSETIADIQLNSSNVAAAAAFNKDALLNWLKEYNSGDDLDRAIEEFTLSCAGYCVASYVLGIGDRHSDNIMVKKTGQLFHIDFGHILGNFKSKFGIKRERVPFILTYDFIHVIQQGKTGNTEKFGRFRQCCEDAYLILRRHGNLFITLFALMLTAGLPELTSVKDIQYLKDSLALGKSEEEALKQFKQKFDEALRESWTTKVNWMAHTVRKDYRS
PI3Kβ, sequence (P27986 whole entry partner, species assumed): as the sequence (P27986 whole entry partner, species assumed) above
PI3Kα, sequence (P42336 whole entry, species assumed, canonical isoform): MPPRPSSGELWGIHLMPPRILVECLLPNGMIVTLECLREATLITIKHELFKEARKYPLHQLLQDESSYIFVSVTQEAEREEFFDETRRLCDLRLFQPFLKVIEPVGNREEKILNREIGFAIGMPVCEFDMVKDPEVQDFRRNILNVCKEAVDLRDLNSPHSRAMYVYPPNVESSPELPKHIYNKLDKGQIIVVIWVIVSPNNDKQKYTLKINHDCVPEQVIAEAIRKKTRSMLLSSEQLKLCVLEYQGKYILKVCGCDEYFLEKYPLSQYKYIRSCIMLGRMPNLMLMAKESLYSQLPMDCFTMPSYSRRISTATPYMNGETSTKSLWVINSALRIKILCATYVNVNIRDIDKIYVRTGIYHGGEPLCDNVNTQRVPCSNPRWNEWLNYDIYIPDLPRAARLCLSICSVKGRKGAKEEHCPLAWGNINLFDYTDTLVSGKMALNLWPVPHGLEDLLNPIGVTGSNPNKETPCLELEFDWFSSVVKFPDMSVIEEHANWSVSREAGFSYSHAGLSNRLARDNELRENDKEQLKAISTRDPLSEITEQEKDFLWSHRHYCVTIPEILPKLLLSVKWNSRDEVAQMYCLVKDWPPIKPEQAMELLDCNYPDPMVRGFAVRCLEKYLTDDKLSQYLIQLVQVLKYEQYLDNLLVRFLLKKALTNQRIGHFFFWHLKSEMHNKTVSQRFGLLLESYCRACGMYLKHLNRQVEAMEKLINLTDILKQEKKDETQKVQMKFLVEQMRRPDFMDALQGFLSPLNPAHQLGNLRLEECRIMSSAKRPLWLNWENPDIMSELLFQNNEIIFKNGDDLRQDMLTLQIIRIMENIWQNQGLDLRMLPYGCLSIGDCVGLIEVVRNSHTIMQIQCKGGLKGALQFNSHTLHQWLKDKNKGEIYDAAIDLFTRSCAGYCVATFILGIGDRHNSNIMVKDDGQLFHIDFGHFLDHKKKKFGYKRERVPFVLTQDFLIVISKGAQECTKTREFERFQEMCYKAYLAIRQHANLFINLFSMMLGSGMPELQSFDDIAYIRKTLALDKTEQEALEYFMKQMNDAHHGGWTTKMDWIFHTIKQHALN
PI3Kα, sequence (P27986 whole entry partner, species assumed, canonical isoform): as the sequence (P27986 whole entry partner, species assumed) above

SMILES | IC50 (PI3Kβ) [µM] | IC50 (PI3Kγ) [µM] | IC50 (PI3Kδ) [µM] | IC50 (PI3Kα) [µM] | IC50 (PDE2) [µM] | activity against PDE2 (in words) (PDE2) | IC50 (PDE4) [µM] | inhibition of PI3K (class I PI3K isoforms) | inhibition of PI3K isoforms (in words) (class I PI3K isoforms) | activity against PDE4 (in words) (PDE4)
O=C1NC(=S)/C(=C/c2ccc3c(c2)OCO3)S1 [Compound 4, (Z)-5-(Benzo[d][1,3]dioxol-5-ylmethylene)-4-thioxothiazolidin-2-one] | 0.15 | 0.12 | 0.76 |  |  |  |  |  |  | 
O=C1NC(=N\[C@@H](Cc2c[nH]c3ccccc23)C(=O)O)/C(=C/c2ccc3c(c2)OCO3)S1 [Compound 7ab] | 80 | 11 | 43 | 26 |  |  |  |  |  | 
CSC1=NC(=O)S/C1=C\c1ccc2c(c1)OCO2 [Compound 5, (Z)-5-(Benzo[d][1,3]dioxol-5-ylmethylene)-4-(methylthio)thiazol-2(5H)-one] | > 1 | 0.06 | 0.038 | 0.056 |  |  |  |  |  | 
O=C1NC(=N\CCc2ccc(O)cc2)/C(=C/c2ccc3c(c2)OCO3)S1 [Compound 7e, (4Z,5Z)-5-(Benzo[d][1,3]dioxol-5-ylmethylene)-4-((4-hydroxyphenethyl)imino)thiazolidin-2-one] |  |  |  |  |  |  |  | no inhibition |  | 
O=C1NC(=N\C2CCCC2)/C(=C/c2ccc3c(c2)OCO3)S1 [Compound 7f, (4Z,5Z)-5-(Benzo[d][1,3]dioxol-5-ylmethylene)-4-(cyclopentylimino)thiazolidin-2-one] |  |  |  |  |  |  |  | no inhibition |  | 
C[C@H](/N=C1\NC(=O)S\C1=C/c1ccc2c(c1)OCO2)C(=O)O [Compound 7aa, (S)-2-((Z)-((Z)-5-(Benzo[d][1,3]dioxol-5-ylmethylene)-2-oxothiazolidin-4-ylidene)amino)propanoic Acid] | 94 | 14.5 | 62 | 19 |  |  |  |  |  | 
O=C1NC(=O)/C(=C/c2ccc3c(c2)OCO3)S1 [Compound 2, (Z)-5-(Benzo[d][1,3]dioxol-5-ylmethylene) thiazolidine-2,4-dione, reference compound] | 0.6 | 0.04 |  |  |  |  |  |  | potent inhibitor | 

Second part, led by results:

IC50 (PI3Kβ) [µM] | IC50 (PI3Kγ) [µM] | IC50 (PI3Kδ) [µM] | IC50 (PI3Kα) [µM] | IC50 (PDE2) [µM] | activity against PDE2 (in words) (PDE2) | IC50 (PDE4) [µM] | SMILES | inhibition of PI3K (class I PI3K isoforms) | inhibition of PI3K isoforms (in words) (class I PI3K isoforms) | activity against PDE4 (in words) (PDE4)
> 100 | > 100 | > 100 | 90 | > 10 | virtually inactive | > 10 | C/N=C1\NC(=O)S\C1=C/c1ccc2c(c1)OCO2 [Compound 7x, (4Z,5Z)-5-(Benzo[d][1,3]dioxol-5-ylmethylene)-4-(methylimino)thiazolidin-2-one] |  |  | virtually inactive
> 100 | > 100 | > 100 | > 100 | 4.7 |  | 5.1 | COc1ccc(C/N=C2\NC(=O)S\C2=C/c2ccc3c(c2)OCO3)cc1OC [Compound 7p, (4Z,5Z)-5-(Benzo[d][1,3]dioxol-5-ylmethylene)-4-((3,4-dimethoxybenzyl)imino)thiazolidin-2-one] |  | no inhibition | 
> 100 | > 100 | > 100 | > 100 | > 10 | virtually inactive | > 10 | CC(O)C/N=C1\NC(=O)S\C1=C/c1ccc2c(c1)OCO2 (stereo not shown) [Compound 7z, (4Z,5Z)-5-(Benzo[d][1,3]dioxol-5-ylmethylene)-4-((2-hydroxypropyl)imino)thiazolidin-2-one] |  |  | virtually inactive

Source: publication PMC3755381 (Australian journal of chemistry, 2012)
